Format in all cases: cell-based
In experiment [1] the target is T1, Potassium channel subfamily K member 2 (Homo sapiens, UniProt O95069).
T1 sequence (O95069 whole entry): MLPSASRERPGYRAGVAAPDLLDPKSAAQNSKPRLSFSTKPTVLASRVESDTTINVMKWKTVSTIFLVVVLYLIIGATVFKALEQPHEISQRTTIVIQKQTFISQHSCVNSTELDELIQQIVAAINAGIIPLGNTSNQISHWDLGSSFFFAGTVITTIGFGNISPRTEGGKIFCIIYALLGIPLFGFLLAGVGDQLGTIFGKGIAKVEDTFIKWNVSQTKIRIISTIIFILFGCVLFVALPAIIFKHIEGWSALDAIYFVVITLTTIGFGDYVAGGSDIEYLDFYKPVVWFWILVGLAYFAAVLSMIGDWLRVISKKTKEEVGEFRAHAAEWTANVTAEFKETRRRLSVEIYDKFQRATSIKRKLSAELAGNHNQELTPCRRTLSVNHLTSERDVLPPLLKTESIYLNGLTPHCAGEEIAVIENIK
The experiment can be described thus: Activation of K2P2.1 (unknown origin) expressed in Xenopus oocytes assessed as effect on channel currents at -80 mV holding potential by two-electrode voltage clamp assay.

For experiment [2], the target named is T2, Potassium channel subfamily K member 10 (Homo sapiens) (UniProt P57789).
T2 sequence (whole entry): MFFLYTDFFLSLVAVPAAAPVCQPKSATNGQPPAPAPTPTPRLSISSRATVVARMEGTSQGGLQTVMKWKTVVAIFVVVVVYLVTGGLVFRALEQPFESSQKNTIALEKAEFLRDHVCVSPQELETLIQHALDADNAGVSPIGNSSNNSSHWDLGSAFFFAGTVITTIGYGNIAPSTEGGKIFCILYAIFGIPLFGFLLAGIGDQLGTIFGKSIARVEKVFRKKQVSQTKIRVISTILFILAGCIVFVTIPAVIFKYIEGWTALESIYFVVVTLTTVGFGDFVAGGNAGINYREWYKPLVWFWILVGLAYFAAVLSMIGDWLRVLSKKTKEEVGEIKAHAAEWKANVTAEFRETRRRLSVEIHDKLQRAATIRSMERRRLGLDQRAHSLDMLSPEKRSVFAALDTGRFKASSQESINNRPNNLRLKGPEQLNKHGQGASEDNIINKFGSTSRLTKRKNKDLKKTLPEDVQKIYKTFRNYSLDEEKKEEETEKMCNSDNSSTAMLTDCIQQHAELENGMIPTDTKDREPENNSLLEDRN
The experiment can be described thus: Activation of K2P10.1 (unknown origin) expressed in Xenopus oocytes assessed as effect on channel currents at -80 mV holding potential at 100 uM by two-electrode voltage clamp assay relative to control.

In experiment [3] the target is T3, Potassium channel subfamily K member 18 (Homo sapiens) (UniProt Q7Z418).
T3 sequence (whole entry): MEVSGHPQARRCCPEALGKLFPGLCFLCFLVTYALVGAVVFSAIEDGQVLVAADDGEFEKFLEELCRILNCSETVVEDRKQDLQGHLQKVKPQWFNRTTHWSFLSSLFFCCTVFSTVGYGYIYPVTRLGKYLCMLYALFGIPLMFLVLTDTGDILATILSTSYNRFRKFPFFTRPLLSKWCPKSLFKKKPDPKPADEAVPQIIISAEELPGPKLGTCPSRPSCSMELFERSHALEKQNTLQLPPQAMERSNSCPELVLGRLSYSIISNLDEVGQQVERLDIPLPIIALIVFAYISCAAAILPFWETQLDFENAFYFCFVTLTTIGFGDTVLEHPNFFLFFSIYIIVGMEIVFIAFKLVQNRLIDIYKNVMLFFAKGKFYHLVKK
The experiment can be described thus: Activation of K2P18.1 (unknown origin) expressed in Xenopus oocytes assessed as effect on channel currents at -80 mV holding potential at 100 uM by two-electrode voltage clamp assay relative to control.

Experiment [4] concerns the target T4, Potassium channel subfamily K member 2 (Homo sapiens) (UniProt O95069).
T4 sequence (whole entry): T1 sequence (O95069 whole entry)
The experiment can be described thus: Activation of K2P2.1 (unknown origin) expressed in Xenopus oocytes assessed as effect on channel currents at -80 mV holding by two-electrode voltage clamp assay relative to control.

Experiment [5] deals with T4, Potassium channel subfamily K member 2 (Homo sapiens). The experiment can be described thus: Activation of K2P2.1 (unknown origin) expressed in HEK293T cells assessed as effect on channel currents at -40 mV holding potential by two-electrode voltage clamp assay relative to control.
The target is the same in experiment [6]. The experiment can be described thus: Activation of K2P2.1 (unknown origin) expressed in HEK293T cells assessed as effect on channel currents by measuring half-maximal activation time at 5 to 20 uM by two-electrode voltage clamp assay relative to control.
Experiment [7] has the same target. The experiment can be described thus: Activation of K2P2.1 (unknown origin) expressed in HEK293T cell membranes in outside-out patch configuration assessed as effect on channel currents at 20 uM by two-electrode voltage clamp assay relative to control.
Experiment [8] shares this target. The experiment can be described thus: Activation of K2P2.1 (unknown origin) expressed in HEK293T cell membranes in outside-out patch configuration assessed as effect on channel currents by measuring time of half-maximal activation at 20 uM by two-electrode voltage clamp assay relative to control.
The target is the same in experiment [9]. The experiment can be described thus: Activation of K2P2.1 (unknown origin) expressed in HEK293T cell membranes in inside-out patch configuration assessed as effect on channel currents by measuring time of half-maximal activation at 20 uM by two-electrode voltage clamp assay relative to control.
The target is the same in experiment [10]. The experiment can be described thus: Activation of K2P2.1 (unknown origin) expressed in HEK293T cell membranes in inside-out patch configuration assessed as effect on channel currents by measuring time of return to baseline following compound washout at 20 uM by two-electrode voltage clamp assay relative to control.
The species named for the next experiment is Homo sapiens. The experiment can be described thus: Activation of K2P2.1 3G mutant (unknown origin) expressed in Xenopus oocytes assessed as effect on channel currents at -80 mV holding potential by two-electrode voltage clamp assay relative to control.
For experiment [11], the system named is Potassium channel subfamily K member 2 (Homo sapiens), O95069 [UNDEFINED MUTATION]. The experiment can be described thus: Activation of K2P2.1 G137I mutant (unknown origin) expressed in Xenopus oocytes assessed as effect on channel currents at 150 uM at -80 mV holding potential by two-electrode voltage clamp assay relative to control.
The target of experiment [12] is Potassium channel subfamily K member 2 (Homo sapiens, UniProt O95069, W275S). The experiment can be described thus: Activation of K2P2.1 W275S mutant (unknown origin) expressed in Xenopus oocytes assessed as effect on channel currents at -80 mV holding potential by two-electrode voltage clamp assay.
Experiment [13] concerns Potassium channel subfamily K member 2 (Homo sapiens), O95069 [UNDEFINED MUTATION]. The experiment can be described thus: Activation of K2P2.1 W275S mutant (unknown origin) expressed in Xenopus oocytes assessed as effect on channel currents at -80 mV holding potential by two-electrode voltage clamp assay relative to control.
The target in experiment [14] is T2, Potassium channel subfamily K member 10 (Homo sapiens). The experiment can be described thus: Activation of K2P10.1 (unknown origin) expressed in Xenopus oocytes assessed as effect on channel currents at -80 mV holding potential by two-electrode voltage clamp assay relative to control.
The target of experiment [15] is T3, Potassium channel subfamily K member 18 (Homo sapiens). The experiment can be described thus: Activation of K2P18.1 (unknown origin) expressed in Xenopus oocytes assessed as effect on channel currents at -80 mV holding potential by two-electrode voltage clamp assay relative to control.

The source made the active and inactive calls. The rule behind the calls is not given here.

Turning to `CC1(C)c2cc(Cl)ccc2N(CCc2nnn[nH]2)c2ccc(Cl)cc21`, the concentration giving a half-maximal response (EC50) in [1] was 36.3 to 38.5 µM; in experiment [12] it was 21.8 µM. The Emax in experiment [2] was 11.4%; in experiment [3] it was 0.9%; in experiment [4], 11.1 to 11.4; in [5] it was 11.4; in the experiment listed under Homo sapiens, 12.9; in experiment [11] it was 0.9. The Emax came to 5.1 in [13], 11.4 in [14] and 0.9 in [15]. The TIME in experiment [6] came to 0.00114 h. In addition, in experiment [7], the outcome was Active. For the same compound, the T1/2 in experiment [8] was 4.6 s; in [9], 10.8 s; in experiment [10] it was 22 s.

Source of the values: ChEMBL document CHEMBL4421719, “Modulation of k2p channels” (2016).
